# Data published in ChEMBL document CHEMBL4385617 (Bioorg Med Chem Lett, 2019).
# Experiments:
# [1] = Inhibition of recombinant Escherichia coli OXA-48 assessed as reduction in breakdown of cephalosporin FC-5 in presence of 100 mM NaHCO3 by fluorescence method
# [2] = Inhibition of recombinant bacterial CphA expressed in Escherichia coli assessed as reduction in hydrolysis of meropenem by UV spectrophotometeric analysis; parameters: species or system Bacteria
# [3] = Inhibition of recombinant Stenotrophomonas maltophilia K279a L1 expressed in Escherichia coli using FC-5 as substrate by fluorescence method
# [4] = Inhibition of recombinant bacterial NDM-1 expressed in Escherichia coli assessed as reduction in breakdown of cephalosporin FC-5 by fluorescence method; parameters: species or system Bacteria
# [5] = Inhibition of recombinant bacterial KPC-2 expressed in Escherichia coli assessed as reduction in breakdown of cephalosporin FC-5 by fluorescence method; parameters: species or system Bacteria
# [6] = Inhibition of recombinant bacterial VIM-1 expressed in Escherichia coli assessed as reduction in breakdown of cephalosporin FC-5 by fluorescence method; parameters: species or system Bacteria
# [7] = Inhibition of recombinant bacterial IMP-1 expressed in Escherichia coli assessed as reduction in breakdown of cephalosporin FC-5 by fluorescence method; parameters: species or system Bacteria
# [8] = target: Metallo-beta-lactamase type 2 (Klebsiella pneumoniae) (UniProt C7C422); assay: Inhibition of NDM1 in Klebsiella pneumoniae B68-1 clinical isolate assessed as potentiation of meropenem-induced antibacterial activity by measuring meropenem MIC at 8 ug/ml by broth microdilution method (Rvb > 64 ug/ml)
# Chain of Metallo-beta-lactamase type 2 (Klebsiella pneumoniae) (C7C422 whole entry): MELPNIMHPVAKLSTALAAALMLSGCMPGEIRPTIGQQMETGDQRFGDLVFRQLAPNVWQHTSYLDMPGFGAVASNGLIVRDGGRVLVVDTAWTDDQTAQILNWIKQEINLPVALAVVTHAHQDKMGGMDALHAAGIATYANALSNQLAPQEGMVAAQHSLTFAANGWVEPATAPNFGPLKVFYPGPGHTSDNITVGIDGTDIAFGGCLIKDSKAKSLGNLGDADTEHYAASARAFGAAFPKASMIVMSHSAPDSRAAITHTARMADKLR
# Escherichia coli [9] = assay: Inhibition of NDM1 in Escherichia coli 91N clinical isolate assessed as potentiation of meropenem-induced antibacterial activity by measuring meropenem MIC at 8 ug/ml by broth microdilution method (Rvb > 64 ug/ml)
# [10] = target: Metallo-beta-lactamase type 2 (Klebsiella pneumoniae) (UniProt C7C422); assay: Inhibition of NDM1 in Klebsiella pneumoniae B64 clinical isolate assessed as potentiation of meropenem-induced antibacterial activity by measuring meropenem MIC at 8 ug/ml by broth microdilution method (Rvb > 64 ug/ml)
# [11] = Inhibition of recombinant bacterial OXA-10 expressed in Escherichia coli assessed as reduction in breakdown of cephalosporin FC-5 by fluorescence method; parameters: species or system Bacteria
# Escherichia coli [12] = assay: Inhibition of NDM1 in Escherichia coli IR57 clinical isolate assessed as potentiation of meropenem-induced antibacterial activity by measuring meropenem MIC at 8 ug/ml by broth microdilution method (Rvb > 64 ug/ml)
# [13] = Inhibition of recombinant Escherichia coli OXA-10 assessed as reduction in breakdown of cephalosporin FC-5 in presence of 100 mM NaHCO3 by fluorescence method
# Bacteria = assay: Inhibition of bacterial expressed in Escherichia coli OXA-10 assessed as reduction in breakdown of cephalosporin FC-5 at 400 uM by fluorescence method
# [14] = target: Metallo-beta-lactamase type 2 (Klebsiella pneumoniae) (UniProt C7C422); assay: Inhibition of NDM1 in Klebsiella pneumoniae IR43 clinical isolate assessed as potentiation of meropenem-induced antibacterial activity by measuring meropenem MIC at 8 ug/ml by broth microdilution method (Rvb > 64 ug/ml)
# Escherichia coli [15] = assay: Inhibition of NDM1 in Escherichia coli S117 clinical isolate assessed as potentiation of meropenem-induced antibacterial activity by measuring meropenem MIC at 8 ug/ml by broth microdilution method (Rvb > 64 ug/ml)
MIC [8] [µg/mL],MIC (Escherichia coli [9]) [µg/mL],MIC [10] [µg/mL],IC50 [11] [nM],MIC (Escherichia coli [12]) [µg/mL],IC50 [13] [nM],inhibition (Bacteria) [%],MIC [14] [µg/mL],MIC (Escherichia coli [15]) [µg/mL],Compound,IC50 [1] [nM],IC50 [2] [nM],IC50 [3],IC50 [4] [nM],IC50 [5] [nM],IC50 [6] [nM],IC50 [7] [nM]
,,,,,,,,,NCc1ccc(C(=O)N[C@H]2Cc3cccc(C(=O)O)c3OB2O)cc1,2600,> 100000,Not Active,29,30,85,1000
> 64,> 64,> 64,> 400000,> 64,> 400000,< 50,> 64,> 64,O=C(O)C[C@@H]1CC[C@H](NC(=O)Cc2cccs2)B(O)O1 [VABORBACTAM],,,,,,,
